Source: ChEMBL document CHEMBL1201862, “PubChem BioAssay data set” (2004)
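Tested at 5 concentrations; 48 h exposure; 96-well plates; endpoints linearly interpolated, else capped at highest concentration. Here, GI50 denotes the concentration required for 50% inhibition of growth.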 The source made the active and inactive calls. Rule as the data show it: active = GI50 up to about 1.1 µM and inactive = higher.

Key:
Test in all cases: NCI tumour cell line growth inhibition, 48 h
[1] = system: HCC 2998
[2] = system: NCI/ADR-RES
[3] = system: IGROV-1
[4] = system: SN12C
[5] = system: U-251
[6] = system: Malme-3M
[7] = system: SF-539
[8] = system: OVCAR-8
[9] = system: HCT-15
[10] = system: A549
[11] = system: RXF 393
[12] = system: SK-OV-3
[13] = system: HOP-62
[14] = system: 786-0
[15] = system: UACC-62
[16] = system: UO-31
[17] = system: SK-MEL-2
[18] = system: SF-268
[19] = system: MDA-MB-435
[20] = system: HOP-92

SMILES | GI50 [1] | GI50 [2] | GI50 [3] | GI50 [4] | GI50 [5] | GI50 [6] | GI50 [7] | GI50 [8] | GI50 [9] [µM] | GI50 [10] | GI50 [11] | GI50 [12] | GI50 [13] | GI50 [14] | GI50 [15] | GI50 [16] | GI50 [17] | GI50 [18] | GI50 [19] | GI50 [20]
c1ccc(/N=C2\SC(=NNc3ccccc3)S\C2=N/c2ccccc2)cc1 | 37.8 µM (inactive) | 40.5 µM (inactive) | 54.2 µM (inactive) | 79.3 µM (inactive) | 38.1 µM (inactive) | > 100 µM (inactive) | 62.5 µM (inactive) | > 100 µM (inactive) | > 100 | 25.2 µM (inactive) | 7.66 µM (inactive) | > 100 µM (inactive) | 44.5 µM (inactive) | > 100 µM (inactive) | 4.13 µM (inactive) | > 100 µM (inactive) | 8.18 µM (inactive) | > 100 µM (inactive) | 35.6 µM (inactive) | 70.8 µM (inactive)
CC(=O)OC12COC1CC(O)C1(C)C(=O)C(O)C3=C(C)C(O)CC(O)(C(OC(=O)c4ccccc4)C21)C3(C)C (stereo not given) | 4.08 µM (inactive) | > 100 µM (inactive) | 7.23 µM (inactive) | 4.94 µM (inactive) | 0.65 µM (active) | 3.78 µM (inactive) | 1.16 µM (inactive) | 6.98 µM (inactive) | > 100 | 7.33 µM (inactive) | > 65.6 µM (inactive) | 2.31 µM (inactive) | 16.6 µM (inactive) | 13.4 µM (inactive) | > 100 µM (inactive) | 67.1 µM (inactive) | 1.55 µM (inactive) | 3.41 µM (inactive) | 0.408 µM (active) | > 100 µM (inactive)
O=C(Nc1ccc([As](=O)(O)O)cc1)Nc1cccc(Cl)c1Cl | > 100 µM (inactive) | > 100 µM (inactive) | > 100 µM (inactive) | > 100 µM (inactive) | 36.5 µM (inactive) | > 100 µM (inactive) | > 100 µM (inactive) | 46.2 µM (inactive) | > 100 | > 100 µM (inactive) | 22.2 µM (inactive) | > 100 µM (inactive) | 70 µM (inactive) | 46.1 µM (inactive) | > 100 µM (inactive) | 40.6 µM (inactive) | > 100 µM (inactive) | 45.7 µM (inactive) | > 100 µM (inactive) | 77.8 µM (inactive)
Cc1nc2c(ccc3[nH]c4ccccc4c32)s1 | 15.3 µM (inactive) | 34.8 µM (inactive) | 21.9 µM (inactive) | 24 µM (inactive) | 20.5 µM (inactive) | 31.4 µM (inactive) | 26 µM (inactive) | 30.1 µM (inactive) | 18.8 | 28.4 µM (inactive) | 29.8 µM (inactive) | 22.3 µM (inactive) | 17.4 µM (inactive) | 26.1 µM (inactive) | 18.4 µM (inactive) | 26.2 µM (inactive) | 19.9 µM (inactive) | 29.2 µM (inactive) | 26.4 µM (inactive) | 16.3 µM (inactive)
COC/C=C\[C@@]1(O)CCCC[C@@H]1CC(OC)OC | > 100 µM (inactive) | 38.2 µM (inactive) | 32.5 µM (inactive) | 17.5 µM (inactive) | 31.8 µM (inactive) | 77.4 µM (inactive) | 48.5 µM (inactive) | 29.9 µM (inactive) | 27.4 | 68.7 µM (inactive) | > 54.3 µM (inactive) | > 100 µM (inactive) | 36.2 µM (inactive) | 30 µM (inactive) | 11.7 µM (inactive) | 32.1 µM (inactive) | > 100 µM (inactive) | 30.2 µM (inactive) | 28.3 µM (inactive) | > 100 µM (inactive)
COC(=O)/C(=N\Nc1nnc(C)n1N)C(C#N)c1ccccc1 (stereo not given) | > 100 µM (inactive) | > 100 µM (inactive) | > 54.8 µM (inactive) | > 48.4 µM (inactive) | > 77.4 µM (inactive) | 22.3 µM (inactive) | 64.1 µM (inactive) | > 73.3 µM (inactive) | 56.5 | > 92.7 µM (inactive) | > 100 µM (inactive) | > 100 µM (inactive) | > 100 µM (inactive) | > 39.9 µM (inactive) | > 100 µM (inactive) | > 91.4 µM (inactive) | > 100 µM (inactive) | > 100 µM (inactive) | 17.3 µM (inactive) | > 100 µM (inactive)
